Values quoted from earlier work, collected in patent US6048878A, “Substituted piperidine derivatives as selective agonists of 5-HT receptors” (Merck Sharp & Dohme Ltd., priority 1995, dated 2000).

Tests used:
[1] = therapeutic doses
[2] = tested on: human 5-HT1D.sbsb.α and 5-HT1D.sbsb.β receptor subtypes; settings: cf. WO-A-91/17174, Table 1

discrimination between the human 5-HT1D.sbsb.α and 5-HT1D.sbsb.β receptor subtypes [2]: barely discriminates
SMILES: CNS(=O)(=O)Cc1ccc2[nH]cc(CCN(C)C)c2c1 [sumatriptan]
adverse cardiovascular events in humans [1]: certain adverse cardiovascular events
